Measured values as given in ChEMBL document CHEMBL3352577, “A simple and widely applicable hit validation strategy for protein-protein interaction inhibitors based on a quantitative ligand displacement assay” (Bioorg Med Chem Lett, 2014).

Experiments:
[1] = target: T1, Induced myeloid leukemia cell differentiation protein Mcl-1 (Homo sapiens, UniProt Q07820); assay: Displacement of F-bid from human recombinant N-terminal His-tagged Mcl-1 (1 to 319) expressed in Escherichia coli BL21(DE3) after 120 mins by TR-FRET assay
T1 sequence (Q07820 whole entry): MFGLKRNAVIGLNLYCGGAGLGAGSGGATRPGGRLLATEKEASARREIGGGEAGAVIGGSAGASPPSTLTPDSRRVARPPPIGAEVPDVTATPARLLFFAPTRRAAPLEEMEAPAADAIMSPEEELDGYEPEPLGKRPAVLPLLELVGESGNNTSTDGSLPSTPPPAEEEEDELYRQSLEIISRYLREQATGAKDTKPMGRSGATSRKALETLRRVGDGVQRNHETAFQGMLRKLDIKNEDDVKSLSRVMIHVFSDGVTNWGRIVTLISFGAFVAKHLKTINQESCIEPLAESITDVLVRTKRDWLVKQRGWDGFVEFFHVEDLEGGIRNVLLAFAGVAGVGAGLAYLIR

Bcl-2-like protein 1 [2] = target: T2, Bcl-2-like protein 1 (Homo sapiens, UniProt Q07817); assay: Reversible inhibition of human recombinant N-terminal His-tagged Bcl-xL (1 to 209) expressed in Escherichia coli BL21(DE3) after 30 to 120 mins by TR-FRET assay in presence of F-bid
T2 sequence (Q07817 whole entry): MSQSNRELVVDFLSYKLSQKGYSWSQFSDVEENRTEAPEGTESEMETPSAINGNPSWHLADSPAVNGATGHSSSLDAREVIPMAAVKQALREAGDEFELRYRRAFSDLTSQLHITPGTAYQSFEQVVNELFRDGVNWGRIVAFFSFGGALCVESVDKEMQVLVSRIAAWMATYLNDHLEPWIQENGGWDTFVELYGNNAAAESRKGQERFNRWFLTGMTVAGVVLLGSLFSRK

Bcl-2-like protein 1 [3] = target: T2, Bcl-2-like protein 1; assay: Displacement of F-bid from human recombinant N-terminal His-tagged Bcl-xL (1 to 209) expressed in Escherichia coli BL21(DE3) after 2 hrs by fluorescence polarization assay
Bcl-2-like protein 1 [4] = target: T2, Bcl-2-like protein 1; assay: Displacement of F-bid from human recombinant N-terminal His-tagged Bcl-xL (1 to 209) expressed in Escherichia coli BL21(DE3) after 30 mins by TR-FRET assay
Bcl-2-like protein 1 [5] = target: T2, Bcl-2-like protein 1; assay: Displacement of F-bid from human recombinant N-terminal His-tagged Bcl-xL (1 to 209) expressed in Escherichia coli BL21(DE3) after 120 mins by TR-FRET assay
[6] = target: T1, Induced myeloid leukemia cell differentiation protein Mcl-1; assay: Displacement of F-bid from human recombinant N-terminal His-tagged Mcl-1 (1 to 319) expressed in Escherichia coli BL21(DE3) after 2 hrs by fluorescence polarization assay

Ki [1] | Ki (Bcl-2-like protein 1 [2]) | Ki (Bcl-2-like protein 1 [3]) | IC50 (Bcl-2-like protein 1 [4]) | IC50 (Bcl-2-like protein 1 [5]) | Ki (Bcl-2-like protein 1 [5]) | Ki [6] | Structure (SMILES)
20 µM | 9 µM |  |  |  |  |  | O=C(CC(Cc1ccc(Cl)cc1)C(=O)O)c1ccc(C2CCCCC2)cc1 (centres undefined)
12 µM | 13 µM | 4.7 µM | 18 µM | 19 µM | 12 µM | 14 µM | O=C(CC(Sc1ccc(Cl)cc1)C(=O)O)c1ccc(C2CCCCC2)cc1 (centres undefined)
